1 compound from patent US20020022633A1, “Inhibitors of prenyl-protein transferase” (priority 2000, published 2002) can be followed below.

The assay concerns the target T1, human FPTase (Homo sapiens, UniProt P49354+P49356).
T1 construct: made in house
Put plainly: In vitro inhibition of ras farnesyl transferase (FPTase transferase assay). It is filed as biochemical. The settings on record: recombinant FPTase; 650 nM Ras-CVLS, 100 nM farnesyl diphosphate; 30° C.; read-out: IC50, inhibitory activity against human FPTase. As to the method: In vitro Inhibition of ras Farnesyl Transferase
Transferase Assays. Isoprenyl-protein transferase activity assays are carried out at 30° C. unless noted otherwise. A typical reaction contains (in a final volume of 50 µL): [^3H]farnesyl diphosphate, Ras protein , 50 mM HEPES, pH 7.5, 5 mM MgCl2, 5 mM dithiothreitol, 10 μM ZnCl2, 0.1% polyethyleneglycol (PEG) (15,000-20,000 mw) and isoprenyl-protein transferase. The FPTase employed in the assay is prepared by recombinant expression as described in Omer, C. A., Kral, A. M., Diehl, R. E., Prendergast, G. C., Powers, S., Allen, C. M., Gibbs, J. B. and Kohl, N. E. (1993) Biochemistry 32:5167-5176. After thermally pre-equilibrating the assay mixture in the absence of enzyme, reactions are initiated by the addition of isoprenyl-protein transferase and stopped at timed intervals (typically 15 min) by the addition of 1 M HCl in ethanol (1 mL). The quenched reactions are allowed to stand for 15 m (to complete the precipitation process). After adding 2 mL of 100% ethanol, the reactions are vacuum-filtered through Whatman GFIC filters. Filters are washed four times with 2 mL aliquots of 100% ethanol, mixed with scintillation fluid (10 mL) and then counted in a Beckman LS3801 scintillation counter. […]

Counter-ions that a name gives are not always drawn. Bounds are passed on as bounds.

The term IC50 denotes the point on the concentration scale where inhibition reaches its midpoint.

In the case of `N#Cc1ccc2cc1Oc1ccc3ccc(=O)n(c3c1)-c1ccc(cn1)CCc1cncn1C2` [Example 1, 17-Oxo-22,23-dihydro-5H-12,14:18,21-dietheno-6,10-metheno-benzo[d]imidazo [4,3-l][1,5,7,13]oxatriazacyclononadecine-9-carbonitrile dihydrochloride], the 50% inhibitory concentration (IC50) was no more than 30 µM.
